Source: patent publication US5759827A, “Acylated oligopeptides for transfecting cells” (Hoffmann-La Roche Inc., priority 1995, dated 1998)
Square brackets hold non-standard residues; d marks the D form. Peptide text beside a SMILES is read from it. * marks the point of attachment. Palmitoyl = CCCCCCCCCCCCCCCC(=O)*; dDab = NCC[C@@H](N)C(=O)O; Orn = NCCC[C@H](N)C(=O)O; dDap = NC[C@@H](N)C(=O)O; Dab = NCC[C@H](N)C(=O)O; Dap = NC[C@H](N)C(=O)O; NHNH2 = NN*

Tests used:
Type in all cases: cell-based
CHO K1 = assay: Transfection efficiency with a luciferase encoding vector, CHO K1 cell-line
Procedure: (§1) A transfecting complex with Nγ-palmitoyl-D-(α,γ-diaminobutyryl)-L-(α,γ-diaminobutyric acid) hydrazide (compound A) was prepared as described in example 1. Lipofectamine™ complex was prepared following manufacturer's instructions. The transfection efficiency of both systems was compared in various cell-lines using a luciferase encoding vector.
(§2) Cells were transfected with a luciferase encoding plasmid and luciferase activity was measured 48 h after transfection. Results are expressed as relative light units.

LM tk- = assay: Transfection efficiency with a luciferase encoding vector, LM tk- cell-line
Procedure: as §1, §2

COS-1 cells = assay: Transfection efficiency in COS-1 cells with a beta-galactosidase encoding plasmid; details: for Beta-galactosidase activity 0.2 μg DNA/well / Beta-galactosidase activity 1 μg DNA/well: formulated as in example 1 (DOPE liposomes added to compound/DNA), 48 h after transfection
Procedure: Dioleoyl phosphatidylethanolamine (DOPE, Avanti Polar Lipids Inc.) liposomes were prepared by drying under vacuum the lipid in solution in chloroform and then rehydrating the lipid film with 30 mM Tris Cl pH 8.5. Final lipid concentration was 2 mM. The lipid dispersion was subsequently sonicated for 10-15 min in a sonicator bath (Elgasonic, 50 kHz).
(§3) Twenty μg of plasmid DNA were diluted with 260 μl of distilled, sterile water in a polystyrene sterile tube. […] 140 μl of DOPE liposomes were then slowly added, drop by drop, to obtain a molar ratio between DOPE and Nγ-palmitoyl-D-(α,γ-diaminobutyryl)-L-(α,γ-diaminobutyric acid) hydrazide of 5:1. The complex was carefully mixed. The preparation was allowed to stand at room temperature during about 5 min and was then added to COS-1 cells grown in 96-well plates.
as §3, with “Mixed micelles of DOPE (2 μmoles) and dicaproyl phosphatidylcholine (15 μmotes) were prepared by drying the lipids under vacuum and then rehydrating the lipid film with 1 ml of 30 mM TrisCl buffer pH 8.5. Twenty” for “Twenty”, “pCH110” for “DNA”, “distilled” for “distilled, sterile”, “DOPE/dicyproyl PC mixed micelles” for “DOPE liposomes”, “added” for “added, drop by drop,”
The mixture was added to 20 μg of plasmid DNA in 260 μl of distilled water, so that the +/- charge ratio between Nγ-palmitoyl-D-(α,γ-diaminobutyryl)-L-(α,γ-diaminobutyric acid) hydrazide and plasmid DNA was 2:1. The complex was carefully mixed. The preparation was allowed to stand at room temperature during about 5 min and was then added to COS-1 cells grown in 96-well plates.

293-EBNA = assay: Transfection efficiency with a luciferase encoding vector, 293-EBNA cell-line
Procedure: as §1, §2

HeLa = assay: Transfection efficiency with a luciferase encoding vector, HeLa cell-line
Procedure: as §1, §2

CCCCCCCCCCCCCCCC(=O)NCC[C@@H](N)C(=O)N[C@@H](CCN)C(=O)NN [cpd A, Nγ-palmitoyl-D-(α,γ-diaminobutyryl)-L-(α,γ-diaminobutyric acid) hydrazide] (H-[dDab](Palmitoyl)-[Dab]-NHNH2)
enhancement cpd A over Lipofectamine (CHO K1): 33 | enhancement cpd A over Lipofectamine (LM tk-): 12 | transfection efficiency expressed as beta-galactosidase activity (COS-1 cells; Example 2: DOPE/dicaproyl phosphatidylcholine mixed micelles, plasmid pCH110, 0.2 μg of DNA per well): 7280 μUnits per well | transfection efficiency expressed as beta-galactosidase activity (COS-1 cells; Example 2: DOPE/dicaproyl phosphatidylcholine mixed micelles, plasmid pCH110, 1 μg of DNA per well): 6375 μUnits per well | transfection efficiency expressed as beta-galactosidase activity (COS-1 cells; Example 3: compound premixed with DOPE liposomes, then added to DNA, 0.2 μg of DNA per well): 4205 μUnits per well | transfection efficiency expressed as beta-galactosidase activity (COS-1 cells; Example 3: compound premixed with DOPE liposomes, then added to DNA, 1 μg of DNA per well): 7880 μUnits per well | Beta-galactosidase activity 0.2 μg DNA/well (COS-1 cells): 5772 μunits of beta-galactosidase p | Beta-galactosidase activity 1 μg DNA/well (COS-1 cells): 9942 μunits of beta-galactosidase p | enhancement cpd A over Lipofectamine (293-EBNA): 5 | enhancement cpd A over Lipofectamine (HeLa): 4

CCCCCCCCCCCCCCCC(=O)N[C@@H](CCCNC(=N)N)C(=O)N[C@@H](CCCN)C(=O)OC [N^α palmitoyl-L arginyl-L ornithine methyl ester] (Palmitoyl-Arg-[Orn]-OMe)
Beta-galactosidase activity 0.2 μg DNA/well (COS-1 cells): 0 μunits of beta-galactosidase p | Beta-galactosidase activity 1 μg DNA/well (COS-1 cells): 870 μunits of beta-galactosidase p

CCCCCCCCCCCCCCCC(=O)N[C@@H](CCN)C(=O)NN [N^α palmitoyl-L (α,γ-diaminobutyric acid) hydrazide]
Beta-galactosidase activity 1 μg DNA/well (COS-1 cells): 1411 μunits of beta-galactosidase p

CCCCCCCCCCCCCCCC(=O)NC[C@@H](N)C(=O)N[C@@H](CN)C(=O)OCC [N^γ palmitoyl-D (α,ε-diaminopropionyl)-L (α,ε-diaminopropionic acid) ethyl ester] (H-[dDap](Palmitoyl)-[Dap]-OEt)
Beta-galactosidase activity 0.2 μg DNA/well (COS-1 cells): 359 μunits of beta-galactosidase p | Beta-galactosidase activity 1 μg DNA/well (COS-1 cells): 0 μunits of beta-galactosidase p

CCCCCCCCCCCCCCCC(=O)N[C@@H](CCCCN)C(=O)N[C@@H](CO)C(=O)OC [N^α palmitoyl-L lysyl-L serine methyl ester]
Beta-galactosidase activity 0.2 μg DNA/well (COS-1 cells): 0 μunits of beta-galactosidase p | Beta-galactosidase activity 1 μg DNA/well (COS-1 cells): 219 μunits of beta-galactosidase p

CCCCCCCCCCCCCCCC(=O)N[C@@H](CCCNC(=N)N)C(=O)N[C@@H](CCCNC(=N)N)C(=O)OCC [N^α palmitoyl-L arginyl-L arginine ethyl ester] (Palmitoyl-Arg-Arg-OEt)
Beta-galactosidase activity 0.2 μg DNA/well (COS-1 cells): 0 μunits of beta-galactosidase p | Beta-galactosidase activity 1 μg DNA/well (COS-1 cells): 382 μunits of beta-galactosidase p

CCCCCCCCCCCCCCCC(=O)N[C@@H](CCCN)C(=O)N[C@@H](CCCN)C(=O)OC [N^α palmitoyl-L ornithyl-L ornithine methyl ester]
Beta-galactosidase activity 0.2 μg DNA/well (COS-1 cells): 44 μunits of beta-galactosidase p | Beta-galactosidase activity 1 μg DNA/well (COS-1 cells): 789 μunits of beta-galactosidase p

N^α methyl arachidoyl-L lysyl-L lysine methyl ester
Beta-galactosidase activity 0.2 μg DNA/well (COS-1 cells): 0 μunits of beta-galactosidase p | Beta-galactosidase activity 1 μg DNA/well (COS-1 cells): 148 μunits of beta-galactosidase p

CCCCCCCCCCCCCCCC(=O)NCC[C@H](N)C(=O)N[C@@H](CCN)C(=O)N[C@@H](CCN)C(=O)N[C@@H](CCN)C(=O)NN [N^γ palmitoyl-L (α,γ-diaminobutyryl)-L (α,γ-diaminobutyryl)-L (α,γ-diaminobutyryl)-L (α,γ-diaminobutyric acid) hydrazide] (H-[Dab](Palmitoyl)[Dab][Dab][Dab]-NHNH2)
Beta-galactosidase activity 0.2 μg DNA/well (COS-1 cells): 1800 μunits of beta-galactosidase p | Beta-galactosidase activity 1 μg DNA/well (COS-1 cells): 7835 μunits of beta-galactosidase p

CCCCCCCCCCCCCCCC(=O)N[C@@H](CCN)C(=O)N[C@@H](CCN)C(=O)NN [N^α palmitoyl-L (α,γ-diaminobutyryl)-L (α,γ-diaminobutyric acid) hydrazide] (Palmitoyl-[Dab]-[Dab]-NHNH2)
Beta-galactosidase activity 0.2 μg DNA/well (COS-1 cells): 2742 μunits of beta-galactosidase p | Beta-galactosidase activity 1 μg DNA/well (COS-1 cells): 3519 μunits of beta-galactosidase p

N^α palmitoyl-L lysyl-L lysine ethyl ester
Beta-galactosidase activity 0.2 μg DNA/well (COS-1 cells): 138 μunits of beta-galactosidase p | Beta-galactosidase activity 1 μg DNA/well (COS-1 cells): 424 μunits of beta-galactosidase p

CCCCCCCCCCCCCCCC(=O)N[C@@H](CCCCN)C(=O)N[C@@H](CCCCN)C(=O)NCc1ccccc1 [N^α palmitoyl-L lysyl-L lysine benzylamide]
Beta-galactosidase activity 0.2 μg DNA/well (COS-1 cells): 510 μunits of beta-galactosidase p | Beta-galactosidase activity 1 μg DNA/well (COS-1 cells): 845 μunits of beta-galactosidase p

CCCCCCCCCCCCCCCC(=O)N[C@@H](CCCCN)C(=O)N[C@@H](CCCCN)C(=O)N[C@@H](CCCCN)C(=O)NN [N^α palmitoyl-L lysyl-L lysyl-L lysine hydrazide]
Beta-galactosidase activity 0.2 μg DNA/well (COS-1 cells): 136 μunits of beta-galactosidase p | Beta-galactosidase activity 1 μg DNA/well (COS-1 cells): 2232 μunits of beta-galactosidase p

CCCCCCCCCCCCCCCC(=O)NCC[C@@H](N)C(=O)N[C@H](CCN)C(=O)N[C@@H](CCN)C(=O)NN [N^γ palmitoyl-D (α,γ-diaminobutyryl)-D (α,γ-diaminobutyryl)-L (α,γ-diaminobutyric acid) hydrazide] (H-[dDab](Palmitoyl)-[dDab]-[Dab]-NHNH2)
Beta-galactosidase activity 0.2 μg DNA/well (COS-1 cells): 1847 μunits of beta-galactosidase p | Beta-galactosidase activity 1 μg DNA/well (COS-1 cells): 7768 μunits of beta-galactosidase p

N^γ γ palmitoyl-D (α,ε-diaminopropionyl)-L (α,ε-diaminopropionic acid) hydrazide
Beta-galactosidase activity 0.2 μg DNA/well (COS-1 cells): 0 μunits of beta-galactosidase p | Beta-galactosidase activity 1 μg DNA/well (COS-1 cells): 3671 μunits of beta-galactosidase p

CCCCCCCCCCCCCCCC(=O)NCC[C@H](N)C(=O)N[C@H](CCN)C(=O)N[C@H](CCN)C(=O)N[C@@H](CCN)C(=O)NN [N^γ palmitoyl-L (α,γ-diaminobutyryl)-D (α,γ-diaminobutyryl)-D (α,γ-diaminobutyryl)-L (α,γ-diaminobutyric acid) hyrazide] (H-[Dab](Palmitoyl)[dDab][dDab][Dab]-NHNH2)
Beta-galactosidase activity 0.2 μg DNA/well (COS-1 cells): 497 μunits of beta-galactosidase p | Beta-galactosidase activity 1 μg DNA/well (COS-1 cells): 542 μunits of beta-galactosidase p

N^ε palmitoyl-L lysyl-L lysyl-L lysine methyl ester
Beta-galactosidase activity 0.2 μg DNA/well (COS-1 cells): 0 μunits of beta-galactosidase p | Beta-galactosidase activity 1 μg DNA/well (COS-1 cells): 1426 μunits of beta-galactosidase p

N^α oleoyl-L lysyl-L lysine ethyl ester
Beta-galactosidase activity 0.2 μg DNA/well (COS-1 cells): 0 μunits of beta-galactosidase p | Beta-galactosidase activity 1 μg DNA/well (COS-1 cells): 1333 μunits of beta-galactosidase p

CCCCCCCCCCCCCCCC(=O)N[C@@H](CCCCN)C(=O)N[C@@H](CCCCN)C(=O)O [N^α palmitoyl-L lysyl-L lysine]
Beta-galactosidase activity 0.2 μg DNA/well (COS-1 cells): 0 μunits of beta-galactosidase p | Beta-galactosidase activity 1 μg DNA/well (COS-1 cells): 530 μunits of beta-galactosidase p

N^α palmitoyl-L lysyl-L lysine methyl ester
Beta-galactosidase activity 0.2 μg DNA/well (COS-1 cells): 0 μunits of beta-galactosidase p | Beta-galactosidase activity 1 μg DNA/well (COS-1 cells): 150 μunits of beta-galactosidase p

N^ε palmitoyl-L lysyl-L lysine methyl ester
Beta-galactosidase activity 0.2 μg DNA/well (COS-1 cells): 0 μunits of beta-galactosidase p | Beta-galactosidase activity 1 μg DNA/well (COS-1 cells): 100 μunits of beta-galactosidase p

N^α palmitoyl-L (α,γ-diaminobutyryl)-L lysine methyl ester
Beta-galactosidase activity 1 μg DNA/well (COS-1 cells): 791 μunits of beta-galactosidase p
